For orientation: melting point means the temperature of the solid-liquid transition. One may read the Ki as a dissociation constant, usually derived from enzyme kinetics or from competition with a known ligand. By IC50 is commonly meant the midpoint of a concentration-inhibition curve.

We go through 12 compounds from US6410561B1, “Amide derivatives and nociceptin antagonists” (Japan Tobacco Inc., priority 1998, dated 2002).

Data set [1] concerns the target T1, ORL-1 receptor (Homo sapiens, UniProt P41146).
T1 construct: expressed in transfected cells
The data set is described as follows: ORL1 receptor binding assay ([3H]nociceptin). The following applies: for Ki: calculated from IC50 and Kd of [3H]nociceptin; for IC50: membrane of human ORL-1 expression cells, [3H]nociceptin 0.5 nM. As to the method: ORL1 Receptor Binding Assay
A cell membrane suspension obtained from human ORL-1 expression cells was adjusted with Tris buffer [50 mM Tris, 2 mM EDTA, 0.1 mM (p-Amidinophenyl)methanesulfonyl Fluoride Hydrochloride (p-APMSF), 2 mg/ml BSA] to membrane protein amount of about 25 μg/ml (2.5 μg/well). This was mixed with [^3H]nociceptin (diluted with Tris buffer to a final concentration of 0.5 nM) and test compound (diluted with Tris buffer to a final concentration of 10 nM-10 μM), and the mixture was incubated at room temperature for 60 min. The membrane was recovered on a G/F-B filter (Packard, Unifilter 96GF/B) using a cell harvester and the reaction was stopped. After washing 3 times, the filter was dried at 42° C. for 1 hr. A scintillation solution (Packard, microscint-20) was added and the radioactivity (Packard, Top count A9912V) was assayed.
The nonspecific binding was the binding in the presence of 1 μM nociceptin and the difference between the total binding and nonspecific binding was taken as the specific binding. IC50 was calculated from inhibition of specific binding at each concentration of the compound, and Ki value of the test compound was calculated from this value and Kd value of [^3H]nociceptin.

Data set [2] relates to allodynia model. Kind of data set: Allodynia test (intrathecal nociceptin, tactile stimulation). The format is in vivo, Mice. The following applies: Mus musculus, read-out: Allodynia M.E.D. (minimum effective dose). As to the method:
Mice (Crj, ICR, 4-week-old, male) were intrathecally administered with nociceptin (50 pg/5 μl) without anesthesia. For 20 min after administration and at 5 min intervals, an area from lateral region to tail of the mice was rubbed with a brush and the response of the mice was observed. The evaluation followed the criteria of 0; no change, 1; run or cry upon tactile stimulation, and 2; cry loud or dash away upon tactile stimulation. The test compound was suspended in a 0.5% MC solution and orally administered 60 min before nociceptin administration. The significant difference of the score of each administration group at 20 min after nociceptin administration from the group administered with solvent was analyzed with Mann-Whitny U-test.

Data set [3] addresses T2, μ receptor (Rattus norvegicus, UniProt P33535).
T2 construct: Rat cerebrum membrane standard sample; from tissue; host or cells: rat cerebrum membranes
The data set is described as follows: μ receptor binding assay ([3H]DAMGO). The following applies: for Ki: calculated from IC50 and Kd of [3H]DAMGO; for IC50: rat cerebrum membrane, [3H]DAMGO 1 nM. As to the method:
Rat cerebrum membrane standard sample (final concentration 0.755 mg·protein/ml), [^3H]DAMGO (Try-D-Ala-Gly-NMe-Phe-Gly-ol) [diluted with Tris buffer (50 mM Tris-HCl, 0.1 mM p-APMSF, 2 mg/ml BSA (pH=7.4)) to a final concentration of 1 nM] and test compound (diluted with Tris buffer to a final concentration of 10 nM-10 μM) were mixed, and the mixture was incubated at room temperature for 90 min. The membrane was recovered on a G/F-B filter (same as above) using a cell harvester and the reaction was stopped. After washing 3 times, the filter was dried at 42° C. for 1 hr. A scintillation solution (same as above) was added and the radioactivity (same as above) was assayed.
The nonspecific binding was the binding in the presence of 10 μM naloxone and the difference between the total binding and nonspecific binding was taken as the specific binding. IC50 was calculated from inhibition of specific binding at each concentration of the compound, and Ki value of the test compound was calculated from this value and Kd value of [^3H]DAMGO.

Data set [4] concerns Mice. Kind of data set: Hot-plate test. The format is in vivo. The following applies: Mus musculus, 1 h, oral, 60 min after administration, 55.5°C, read-out: Hot-plate M.E.D. (minimum effective dose). As to the method: Mice (Crj, ICR, 4-week-old, male) were placed on a hot-plate (temperature 55.5±0.5° C.) and the time until the mice jumped and tried to run away was recorded. The mice were grouped according to the time and body weight so that the groups were evenly membered. The test compound was suspended in a 0.5% methylcellulose (MC) solution and orally administered to mice. After 60 min, the mice were again placed on a hot-plate and the time until they licked the hindlimb or jumped and tried to run away was recorded. The significant difference from the group administered with solvent was analyzed with ANOVA followed by Dunnett two-tailed test.

The mark [5] stands for this setting: mice, oral, 60 min before nociceptin 50 pg i.t., score at 20 min.

Molecules are shown by their SMILES. Where two headings read alike, the source gives them in different places.

T1 sequence (P41146 whole entry): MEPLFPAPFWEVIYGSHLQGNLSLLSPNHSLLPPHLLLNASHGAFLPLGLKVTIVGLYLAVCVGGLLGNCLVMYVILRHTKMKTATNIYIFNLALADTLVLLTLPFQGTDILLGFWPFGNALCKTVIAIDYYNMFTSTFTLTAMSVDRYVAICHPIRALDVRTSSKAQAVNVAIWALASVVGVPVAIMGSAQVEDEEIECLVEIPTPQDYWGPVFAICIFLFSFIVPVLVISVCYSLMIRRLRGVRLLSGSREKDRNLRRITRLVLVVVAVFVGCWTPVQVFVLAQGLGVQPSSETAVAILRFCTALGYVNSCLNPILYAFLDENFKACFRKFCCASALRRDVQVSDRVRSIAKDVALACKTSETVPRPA
T2 sequence (P33535 whole entry): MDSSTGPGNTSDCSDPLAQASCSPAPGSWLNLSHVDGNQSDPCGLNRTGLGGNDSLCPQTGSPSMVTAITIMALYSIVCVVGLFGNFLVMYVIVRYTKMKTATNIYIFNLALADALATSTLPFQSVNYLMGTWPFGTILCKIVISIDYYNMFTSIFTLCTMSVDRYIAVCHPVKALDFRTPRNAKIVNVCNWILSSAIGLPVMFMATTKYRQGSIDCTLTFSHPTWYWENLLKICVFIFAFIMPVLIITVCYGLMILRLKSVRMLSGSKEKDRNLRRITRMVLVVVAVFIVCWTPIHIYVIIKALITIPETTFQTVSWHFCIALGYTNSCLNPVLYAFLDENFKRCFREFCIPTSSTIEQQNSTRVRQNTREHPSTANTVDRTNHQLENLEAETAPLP

`Cc1cc(N)c2cc(NC(=O)c3ccccc3COc3ccc(Cl)cc3Cl)ccc2n1.Cl` [Example 2, N-(4-amino-2-methyl-6-quinolyl)-2-[(2,4-dichlorophenoxy)methyl]benzamide hydrochloride]: the melting point was determined as 262 °C. Moreover, in data set [1], the Ki is 4 nM and the IC50 is 70 nM. The minimal effective dose in data set [2] (setting [5]) amounted to 0.3 mg/kg. Further, in data set [3], the Ki is 497 nM and the IC50 came to 1330 nM. Besides, in data set [4], the minimal effective dose amounted to 1 mg/kg.

As to `COc1ccc(OCc2ccccc2C(=O)Nc2ccc3nc(C)cc(N)c3c2)cc1.Cl` [Example 4, N-(4-amino-2-methyl-6-quinolyl)-2-[(4-methoxyphenoxy)methyl]benzamide hydrochloride], the melting point is 276 °C. Besides, the minimal effective dose in data set [2] (po) is < 1 mg/kg. In data set [3], the Ki was 453 nM and the IC50 turned out to be 1260 nM. Further, the minimal effective dose in data set [4] was < 3 mg/kg.

As to `Cc1cc(N)c2cc(NC(=O)c3ccccc3COc3ccc([N+](=O)[O-])cc3)ccc2n1` [Example 7, N-(4-amino-2-methyl-6-quinolyl)-2-[(4-nitrophenoxy)methyl]benzamide], the melting point is 148 °C. The minimal effective dose in data set [2] (setting [5]) amounted to 0.3 mg/kg. Moreover, in data set [3], the Ki is 346 nM and the IC50 is 960 nM. In addition, the minimal effective dose in data set [4] was found to be 3 mg/kg.

Regarding `Cc1cc(N)c2cc(NC(=O)c3ccccc3COc3ccc(Cl)cc3)ccc2n1.Cl` [Example 11, N-(4-amino-2-methyl-6-quinolyl)-2-[(4-chlorophenoxy)methyl]benzamide hydrochloride], the melting point stood at 245 °C. Also, in data set [1], the Ki is 3 nM and the IC50 was found to be 60 nM. Further, in data set [2] (setting [5]), the minimal effective dose was found to be 0.3 mg/kg. Also, in data set [3], the Ki was 424 nM and the IC50 was 1120 nM. In data set [4], the minimal effective dose was 3 mg/kg.

In turn, `CC(=O)c1ccc(OCc2ccccc2C(=O)Nc2ccc3nc(C)cc(N)c3c2)cc1.Cl` [Example 12, N-(4-amino-2-methyl-6-quinolyl)-2-[(4-acetylphenoxy)methyl]benzamide hydrochloride] registered a melting point of 270 °C. In addition, in data set [1], the Ki is 8 nM and the IC50 was found to be 160 nM. Besides, the minimal effective dose in data set [2] (setting [5]) was 0.3 mg/kg. In addition, in data set [3], the Ki was 254 nM and the 50% inhibitory concentration (IC50) is 670 nM. Besides, the minimal effective dose in data set [4] stood at 3 mg/kg.

Compound `Cc1cc(N)c2cc(NC(=O)c3ccccc3COc3ccc(C#N)cc3)ccc2n1.Cl` [Example 16, N-(4-amino-2-methyl-6-quinolyl)-2-[(4-cyanophenoxy)methyl]benzamide hydrochloride] came in with a melting point of 286 °C. Besides, in data set [1], the Ki was 6 nM and the IC50 came out at 110 nM. Further, in data set [2] (setting [5]), the minimal effective dose stood at 0.1 mg/kg. In data set [3], the Ki was 259 nM and the IC50 came out at 690 nM. For the same compound, the minimal effective dose in data set [4] stood at 3 mg/kg.

Consider `Cc1ccc(OCc2ccccc2C(=O)Nc2ccc3nc(C)cc(N)c3c2)cc1.Cl` [Example 17, N-(4-amino-2-methyl-6-quinolyl)-2-[(4-methylphenoxy)methyl]benzamide hydrochloride], for which the melting point was determined as 255 °C. This compound displayed an IC50 in data set [1] of 130 nM. In addition, in data set [2] (po), the minimal effective dose came out at 0.3 mg/kg. In data set [3], the Ki is 385 nM and the IC50 came out at 1020 nM. For the same compound, the minimal effective dose in data set [4] was found to be 1 mg/kg.

Take `Cc1cc(N)c2cc(NC(=O)c3ccccc3COc3cccc([N+](=O)[O-])c3)ccc2n1.Cl` [Example 19, N-(4-amino-2-methyl-6-quinolyl)-2-[(3-nitrophenoxy)methyl]benzamide hydrochloride]: the melting point amounted to 245 °C. In addition, in data set [1], the Ki is 9 nM and the IC50 worked out at 160 nM. Besides, in data set [2] (setting [5]), the minimal effective dose was 0.1 mg/kg. Further, in data set [3], the Ki is 388 nM and the IC50 was determined as 1030 nM. In addition, in data set [4], the minimal effective dose is 3 mg/kg.

Take `Cc1cc(N)c2cc(NC(=O)c3ccccc3COc3ccc(Cl)c(Cl)c3)ccc2n1.Cl` [Example 26, N-(4-amino-2-methyl-6-quinolyl)-2-[(3,4-dichlorophenoxy)methyl]benzamide hydrochloride]: the melting point is 223 °C. For the same compound, in data set [1], the Ki was 4 nM and the IC50 was determined as 80 nM. For the same compound, the minimal effective dose in data set [2] (setting [5]) is 0.3 mg/kg. For the same compound, in data set [3], the Ki is 479 nM and the IC50 amounted to 1220 nM. Further, the minimal effective dose in data set [4] is 1 mg/kg.

Compound `Cc1cc(N)c2cc(NC(=O)c3ccccc3COc3ccc(C(C)(C)C)cc3)ccc2n1.Cl` [Example 29, N-(4-amino-2-methyl-6-quinolyl)-2-[(4-tert-butylphenoxy)methyl]benzamide hydrochloride] came in with a melting point of 268 °C. Moreover, in data set [1], the Ki was 9 nM and the IC50 was 160 nM. The minimal effective dose in data set [2] (setting [5]) was > 0.3 mg/kg. Besides, in data set [3], the Ki is 414 nM and the IC50 turned out to be 1050 nM. Besides, the minimal effective dose in data set [4] was 3 mg/kg.

As to `COc1ccc(CCc2ccccc2C(=O)Nc2ccc3nc(C)cc(N)c3c2)cc1.Cl` [Example 84], the melting point is 285 °C. Further, in data set [1], the Ki was 129 nM and the IC50 turned out to be 2520 nM. In data set [2] (setting [5]), the minimal effective dose is < 3 mg/kg. For the same compound, in data set [3], the Ki was 419 nM and the IC50 is 1110 nM. In addition, the minimal effective dose in data set [4] was > 10 mg/kg.

`CCc1ccc(OCc2ccccc2C(=O)Nc2ccc3nc(C)cc(N)c3c2)c(Cl)c1.Cl` [Example 89, N-(4-amino-2-methyl-6-quinolyl)-2-[(2-chloro-4-ethylphenoxy)methyl]benzamide hydrochloride] came in with a melting point of 245.9 °C. In data set [1], the Ki was 6 nM and the IC50 came to 130 nM. Moreover, the minimal effective dose in data set [2] (setting [5]) came to 0.3 mg/kg. In data set [3], the Ki is 548 nM and the IC50 is 1460 nM. Further, the minimal effective dose in data set [4] was 1 mg/kg.
